According to ChEMBL document CHEMBL4371047, “Effect of α-Methoxy Substitution on the Anti-HIV Activity of Dihydropyrimidin-4(3 H)-ones” (J Med Chem, 2019):

Assays:
[1] = Therapeutic index, ratio of CC50 for human MT4 cells to EC50 for HIV-1 NL4-3 infected in human MT4 cells; assay type: toxicity, cell-based; conditions: read-out: Ratio CC50/EC50
[2] = test system: Human immunodeficiency virus 1; assay: Antiviral activity against wild type HIV 1 NL4-3 infected in human MT4 cells assessed as inhibition of virus-induced cytopathic effect after 5 days by MTT assay; assay type: functional, organism-based; conditions: Human immunodeficiency virus 1, NL4-3, MT4, 120 h
[3] = Cytotoxicity against human MT4 cells assessed as reduction in cell viability after 5 days by MTT assay; assay type: cell-based
[4] = test system: Human immunodeficiency virus 1; assay: Antiviral activity against HIV 1 harboring reverse transcriptase Y181C mutant infected in human MT4 cells assessed as inhibition of virus-induced cytopathic effect after 5 days by MTT assay; assay type: functional, organism-based; conditions: Human immunodeficiency virus 1, MT4, 120 h
[5] = test system: Human immunodeficiency virus 1; assay: Antiviral activity against HIV-1 harboring reverse transcriptase Y188L mutant infected in human MT4 cells assessed as inhibition of virus-induced cytopathic effect after 5 days by MTT assay; assay type: functional, organism-based; conditions: Human immunodeficiency virus 1, MT4, 120 h
[6] = test system: Human immunodeficiency virus 1; assay: Antiviral activity against HIV-1 harboring reverse transcriptase K103N mutant infected in human MT4 cells assessed as inhibition of virus-induced cytopathic effect after 5 days by MTT assay; assay type: functional, organism-based; conditions: Human immunodeficiency virus 1, MT4, 120 h
[7] = test system: Human immunodeficiency virus 1; assay: Resistance index, ratio of EC50 for HIV-1 harboring reverse transcriptase Y181C mutant to EC50 for wild type HIV-1 NL4-3; assay type: functional
[8] = test system: Human immunodeficiency virus 1; assay: Resistance index, ratio of EC50 for HIV-1 harboring reverse transcriptase Y188L mutant to EC50 for wild type HIV-1 NL4-3; assay type: functional
[9] = test system: Human immunodeficiency virus 1; assay: Resistance index, ratio of EC50 for HIV-1 harboring reverse transcriptase K103N mutant to EC50 for wild type HIV-1 NL4-3; assay type: functional
[10] = test system: Human immunodeficiency virus 1; assay: Resistance index, ratio of ID50 for recombinant HIV-1 His-tagged reverse transcriptase p66/p51 K103N mutant to ID50 for recombinant wild type HIV-1 reverse transcriptase His-tagged p66/p51
[11] = test system: Human immunodeficiency virus 1; assay: Resistance index, ratio of ID50 for recombinant HIV-1 His-tagged reverse transcriptase p66/p51 Y181I mutant to ID50 for recombinant wild type HIV-1 reverse transcriptase His-tagged p66/p51
[12] = test system: Human immunodeficiency virus 1; assay: Resistance index, ratio of ID50 for recombinant HIV-1 His-tagged reverse transcriptase p66/p51 L100I mutant to ID50 for recombinant wild type HIV-1 reverse transcriptase His-tagged p66/p51
[13] = target: Human immunodeficiency virus type 1 reverse transcriptase (Human immunodeficiency virus 1) (UniProt Q72547)
Description: Inhibition of recombinant wild type HIV-1 His-tagged reverse transcriptase p66/p51 expressed in Escherichia coli assessed as reduction in [3H]dTTP incorporation using poly(rA)/oligo(dT) as template/primer after 20 mins by scintillation counting analysis

[14] = test system: Human immunodeficiency virus type 1 reverse transcriptase (Human immunodeficiency virus 1), Q72547 [K103N]
Description: Inhibition of recombinant HIV-1 His-tagged reverse transcriptase p66/p51 K103N mutant expressed in Escherichia coli assessed as reduction in [3H]dTTP incorporation using poly(rA)/oligo(dT) as template/primer after 20 mins by scintillation counting analysis

[15] = test system: Human immunodeficiency virus type 1 reverse transcriptase (Human immunodeficiency virus 1), Q72547 [Y181I]
[16] = test system: Human immunodeficiency virus type 1 reverse transcriptase (Human immunodeficiency virus 1), Q72547 [L100I]
[17] = test system: Human immunodeficiency virus 1; assay: Antiviral activity against HIV-1 IRLL98 harboring reverse transcriptase M41L, D67N, Y181C, M184V, R211K, and T215Y mutants infected in human MT4 cells assessed as inhibition of virus-induced cytopathic effect after 5 days by MTT assay; assay type: functional, organism-based; conditions: Human immunodeficiency virus 1, IRLL98, MT4, 120 h
[18] = test system: Human immunodeficiency virus 1; assay: Resistance index, ratio of EC50 for HIV-1 IRLL98 harboring reverse transcriptase M41L, D67N, Y181C, M184V, R211K, and T215Y mutants to EC50 for wild type HIV-1 NL4-3; assay type: functional

Compound | selectivity ratio [1] | EC50 [2] [nM] | CC50 at 120 h [3] [nM] | EC50 [4] [nM] | EC50 [5] [nM] | EC50 [6] [nM] | Ratio EC50 [7] | Ratio EC50 [8] | Ratio EC50 [9] | Ratio [10] | Ratio [11] | Ratio [12] | ID50 [13] [nM] | ID50 [14] [nM] | ID50 [15] [nM] | ID50 [16] [nM] | EC50 [17] [nM] | Ratio EC50 [18]
COC(c1nc(NC2CCCC2)[nH]c(=O)c1C)c1c(Cl)cccc1Cl (centres undefined) | 3400 | 10 | 34000 | 1400 | 5400 | 840 | 140 | 540 | 84 | 10 | 43 | 34 | 56 | 540 | 2400 | 1900 | – | –
CCCN(C)c1nc([C@H](OC)c2c(Cl)cccc2Cl)c(C)c(=O)[nH]1 | 162000 | 0.4 | 65000 | 3 | 9 | 2 | 7 | 22 | 5 | 2 | 42 | 19 | 8 | 16 | 340 | 150 | – | –
CCCNc1nc(C(C)c2c(F)cccc2F)c(C)c(=O)[nH]1 (centres undefined) | 11700 | – | 35000 | 60 | > 10000 | – | 20 | – | – | 12 | 125 | 8 | 40 | 470 | 5020 | 310 | 90 | 30
Cc1c([C@H](C)c2c(F)cccc2F)nc(SC2CCCC2)[nH]c1=O | 185000 | 0.3 | 55600 | 11 | 140 | 1 | 37 | 467 | 3 | 2 | 30 | 18 | 5 | 10 | 150 | 90 | – | –
Cc1c(C(C)c2c(F)cccc2F)nc(NC(C)C)[nH]c1=O (centres undefined) | 10000 | 20 | 200000 | 350 | > 10000 | 890 | 17 | – | 44 | 11 | 101 | 7 | 35 | 400 | 3520 | 250 | 150 | 7
CCCNc1nc(C(OC)c2c(Cl)cccc2Cl)c(C)c(=O)[nH]1 (centres undefined) | 3280 | 15 | 49200 | 1700 | 7600 | 210 | 113 | 507 | 14 | 13 | 31 | 18 | 120 | 1600 | 3700 | 2200 | – | –
Cc1c([C@@H](C)c2c(F)cccc2F)nc(SC2CCCC2)[nH]c1=O | 3240 | 11 | 35600 | 1280 | 8200 | 282 | 116 | 745 | 26 | 3 | 31 | 17 | 155 | 540 | 4800 | 2700 | – | –
COC(c1nc(NC(C)C)[nH]c(=O)c1C)c1c(Cl)cccc1Cl (centres undefined) | 651 | 96 | 62500 | 5800 | 12200 | 3000 | 60 | 127 | 31 | 15 | 23 | 11 | 340 | 5200 | 7800 | 3800 | – | –
Cc1cc(C)c(Nc2ccnc(Nc3ccc(C#N)cc3)n2)c(C)c1 [DAPIVIRINE] | – | 0.6 | – | – | – | 2.2 | – | – | – | – | – | – | – | – | – | – | 6 | –
Cc1c(C(C)c2c(F)cccc2Cl)nc(SC2CCCC2)[nH]c1=O (centres undefined) | > 500000 | – | > 15000 | – | – | – | – | – | – | – | – | – | 11 | 1300 | – | 120 | 68 | 2267
CCCN(C)c1nc([C@@H](OC)c2c(Cl)cccc2Cl)c(C)c(=O)[nH]1 | 3010 | 15 | 45200 | 185 | 380 | 185 | 12 | 25 | 12 | 2 | 49 | 24 | 177 | 438 | 8700 | 4300 | – | –
CCC(c1nc(SC2CCCC2)[nH]c(=O)c1C)c1c(F)cccc1F (centres undefined) | 2730 | – | 30000 | – | – | – | 100 | – | – | – | – | – | 5 | 380 | – | 110 | 750 | 68
CCC(C)Sc1nc(O)c(C)c(C(C)c2c(F)cccc2F)n1 (centres undefined) | > 3330 | – | > 3000 | – | – | – | – | – | – | – | – | – | 31 | 1700 | – | 670 | 79 | 88
CCC(C)Sc1nc(C(CC)c2c(F)cccc2F)c(C)c(=O)[nH]1 (centres undefined) | > 3750 | – | > 3000 | – | – | – | – | – | – | – | – | – | 6 | 140 | – | 48 | 150 | 187
COC(c1nc(NC2CCCC2)[nH]c(=O)c1C)c1c(F)cccc1Cl (centres undefined) | 10000 | 7 | 70300 | 390 | 3700 | 170 | 56 | 529 | 24 | 3 | 37 | 27 | 40 | 120 | 1500 | 1100 | – | –
CCC(c1nc(SC(C)C)[nH]c(=O)c1C)c1c(F)cccc1F (centres undefined) | > 7500 | – | > 30000 | – | – | – | – | – | – | – | – | – | 4 | 310 | – | 210 | 280 | 70
Cc1c(O)nc(SC(C)C)nc1C(C)c1c(F)cccc1F (centres undefined) | – | – | – | – | – | – | – | – | – | – | – | – | 3 | 580 | – | 280 | 145 | 145
COC(c1nc(NC(C)C)[nH]c(=O)c1C)c1c(F)cccc1Cl (centres undefined) | > 2670 | 29 | > 77400 | 1400 | 8500 | 620 | 48 | 293 | 21 | 14 | 29 | 17 | 110 | 1600 | 3200 | 1900 | – | –
CO[C@@H](c1nc(SC(C)C)[nH]c(=O)c1C)c1c(F)cccc1Cl | > 722000 | 0.09 | > 65000 | 0.9 | 1 | 0.6 | 10 | 11 | 10 | 17 | 550 | 200 | 2 | 35 | 1100 | 400 | – | –
Cc1c(C(C)c2c(F)cccc2F)nc(SC2CCCC2)[nH]c1=O (centres undefined) | > 3000 | 1 | > 3000 | – | – | 230 | 100 | – | – | 60 | 180 | 60 | 5 | 300 | 900 | 300 | 120 | 120
